Like-named read-outs stand apart in the source and are kept apart here.
How the values were obtained:
HIV-1NL4-3 = assay: HIV-1 infectivity assay in TZM-bl reporter cell line (LTR-luciferase, 48 h); type: cell-based; conditions: Human immunodeficiency virus 1, TZM-bl, 48 h, Table 1; TZM-bl cells, 1 μM, 48 h; 100% = Nef-defective HIV-1; read-out: HIV-1 Infectivity % Inhibition Norm. to Δ-Nef @ 1 μM
Procedure: (§1) In particular, the tables show antiretroviral activity as percent inhibition of HIV-1 infectivity at 1 μM. In brief, this assay uses the TZM-bl reporter cell line, which carries a stable copy of the HIV-1 LTR coupled to luciferase. Cells are infected with HIV-1NL4-3 in the presence and absence of each compound, and luciferase activity is measured 48 h later. This assay measures early events in the HIV-1 life cycle, including viral entry, reverse transcription, nuclear entry and integration, and viral transcription. All assays include control cells infected with Nef-defective HIV-1, which replicates at 30-50% of wild-type in this system. Results are normalized to percent inhibition relative to DMSO-treated control cells infected with wild-type HIV-1 (0% inhibition) and DMSO-treated cells infected with Nef-defective HIV-1 (100% of the Nef-dependent effect)—see column 3. In addition, cell viability is measured in the TZM-bl cell line in the presence of each test compound and in the absence of HIV-1 infection, using the Cell Titer Blue cell viability assay (Promega; column 4).

TZM-bl cell line = type: cell-based; conditions: for % Cell Viability: 1.0 μM, uninfected TZM-bl, CellTiter-Blue, Table 4
Procedure: as §1

HIV-1 NefNL4-3 = HIV-1 NefNL4-3 (Human immunodeficiency virus type 1 group M subtype B, UniProt P03406, A33V/T15A/T51N/V11I); assay: Surface plasmon resonance binding to recombinant full-length Nef (NL4-3); conditions: for Nef NL4-3 Binding, SPR 1:1 or 2-site fitting KD1: 1:1 Langmuir fit where the KD2 cell says '1 to 1 fitting', else 2-site fit
[1] = Nef NL4-3 Binding, SPR 1:1 or 2-site fitting KD2, Table 1, 2-site fit, second component
[2] = Table 2, uninfected TZM-bl cells, 1 μM, Cell Titer Blue
[3] = Table 1, 2-step induced-fit model, read-out: Nef NL4-3 Binding, SPR 2-state fitting KD
[4] = read-out: Nef NL4-3 Binding, SPR 1:1 or 2-site fitting KD1
[5] = read-out: Nef NL4-3 Binding, SPR 1:1 or 2-site fitting KD2, Table 1, 2-site fit, second component

O=C(Cc1ccncc1)N1CCC(c2nn(-c3nc4ccccc4[nH]3)c(O)c2CCc2ccc(F)cc2)CC1 [Compound I-734, 1-{4-[1-(1H-1,3-benzodiazol-2-yl)-4-[2-(4-fluorophenyl)ethyl]-5-hydroxy-1H-pyrazol-3-yl]piperidin-1-yl}-2-(pyridin-4-yl)ethan-1-one]
inhibition at 1 µM (HIV-1NL4-3): -8.2%
Percent Viability @ 1 μM (TZM-bl cells) (TZM-bl cell line; human, 1 μM): 96.0%
Kd (HIV-1 NefNL4-3): 576 nM

Oc1c(CCc2ccc(F)cc2)c(-c2ccncc2)nn1-c1nc2ccccc2[nH]1 [Compound I-113, 1-(1H-1,3-benzodiazol-2-yl)-4-[2-(4-fluorophenyl)ethyl]-3-(pyridin-4-yl)-1H-pyrazol-5-ol]
Kd (HIV-1 NefNL4-3): 3350 nM

Oc1c(CCc2ccc(F)c(Cl)c2)c(-c2cnccn2)nn1-c1nc2ccccc2[nH]1 [Compound I-112, 1-(1H-1,3-benzodiazol-2-yl)-4-[2-(3-chloro-4-fluorophenyl)ethyl]-3-(pyrazin-2-yl)-1H-pyrazol-5-ol]
Nef NL4-3 Binding, SPR 1:1 or 2-site fitting KD1 (HIV-1 NefNL4-3; Table 1): No Interaction

CN1CCC(c2nn(-c3nc4ccccc4[nH]3)c(O)c2CCc2ccc(F)cc2)CC1 [Compound I-801, 1-(1H-1,3-benzodiazol-2-yl)-4-[2-(4-fluorophenyl)ethyl]-3-(1-methylpiperidin-4-yl)-1H-pyrazol-5-ol]
Nef NL4-3 Binding, SPR 1:1 or 2-site fitting KD1 (HIV-1 NefNL4-3; Table 1): No Interaction

Cc1ccc(-c2nn(-c3nc4ccccc4[nH]3)c(O)c2CCc2ccc(F)cc2)cc1 [Compound I-104, 1-(1H-1,3-benzodiazol-2-yl)-4-[2-(4-fluorophenyl)ethyl]-3-(4-methylphenyl)-1H-pyrazol-5-ol]
Kd (HIV-1 NefNL4-3): 2370 nM
Kd (HIV-1 NefNL4-3; [1]): 2260 nM

CCOC(=O)c1ccc(CCc2c(-c3ccccc3)nn(-c3cc(C(F)(F)F)n[nH]3)c2O)cc1 [Compound I-612]
% Cell Viability (TZM-bl cell line): 100%
Percent Viability @ 1 μM (TZM-bl cells) (TZM-bl cell line; [2]): 100.7%

CC(C)(C)OC(=O)N1CCCC(c2nn(-c3nc4ccccc4[nH]3)c(O)c2CCc2ccc(F)cc2)C1 (stereo not drawn) [Compound I-755, tert-butyl 3-[1-(1H-1,3-benzodiazol-2-yl)-4-[2-(4-fluorophenyl)ethyl]-5-hydroxy-1H-pyrazol-3-yl]piperidine-1-carboxylate]
Kd (HIV-1 NefNL4-3; [3]): 296 nM
Kd (HIV-1 NefNL4-3; [4]): 52.7 nM

CS(=O)(=O)N1CCC(c2nn(-c3nc4ccccc4[nH]3)c(O)c2CCc2ccc(F)cc2)CC1 [Compound I-743, 1-(1H-1,3-benzodiazol-2-yl)-4-[2-(4-fluorophenyl)ethyl]-3-(1-methanesulfonylpiperidin-4-yl)-1H-pyrazol-5-ol]
Nef NL4-3 Binding, SPR 1:1 or 2-site fitting KD1 (HIV-1 NefNL4-3; Table 1): No Interaction

Oc1c(CCc2ccc(F)cc2)c(-c2ccccc2Cl)nn1-c1nc2ccccc2[nH]1 [Compound I-117, 1-(1H-1,3-benzodiazol-2-yl)-3-(2-chlorophenyl)-4-[2-(4-fluorophenyl)ethyl]-1H-pyrazol-5-ol]
Kd (HIV-1 NefNL4-3): 1710 nM
Kd (HIV-1 NefNL4-3; [5]): 24700 nM

Oc1c(CCc2ccc(F)c(F)c2)c(-c2cnccn2)nn1-c1nc2ccccc2[nH]1 [Compound I-111, 1-(1H-1,3-benzodiazol-2-yl)-4-[2-(3,4-difluorophenyl)ethyl]-3-(pyrazin-2-yl)-1H-pyrazol-5-ol]
Nef NL4-3 Binding, SPR 1:1 or 2-site fitting KD1 (HIV-1 NefNL4-3; Table 1): No Interaction

Oc1c(Cc2ccc(F)c(F)c2)c(C2CCN(CC(F)(F)F)CC2)nn1-c1nc2ccccc2[nH]1 [Compound I-1001, 1-(1H-1,3-benzodiazol-2-yl)-4-[(3,4-difluorophenyl)methyl]-3-[1-(2,2,2-trifluoroethyl)piperidin-4-yl]-1H-pyrazol-5-ol]
Kd (HIV-1 NefNL4-3; Table 1, 2-site fit, second component, read-out: Nef NL4-3 Binding, SPR 1:1 or 2-site fitting KD2): 500 nM
Kd (HIV-1 NefNL4-3; [4]): 257 nM

Oc1c(CCc2ccc(F)cc2)c(C2CCCNC2)nn1-c1nc2ccccc2[nH]1 (stereo not drawn) [Compound I-502, 1-(1H-1,3-benzodiazol-2-yl)-4-[2-(4-fluorophenyl)ethyl]-3-(piperidin-3-yl)-1H-pyrazol-5-ol]
Kd (HIV-1 NefNL4-3; [3]): 4510 nM
Kd (HIV-1 NefNL4-3; [4]): 2450 nM

Oc1c(CCc2ccc(F)cc2)c(CCCc2ccc(F)cc2)nn1-c1nc2ccccc2[nH]1 [Compound I-120, 1-(1H-1,3-benzodiazol-2-yl)-4-[2-(4-fluorophenyl)ethyl]-3-[3-(4-fluorophenyl)propyl]-1H-pyrazol-5-ol]
inhibition at 1 µM (HIV-1NL4-3): 70.1%
Percent Viability @ 1 μM (TZM-bl cells) (TZM-bl cell line; human, 1 μM): 89.1%

Oc1c(CCc2ccc(F)cc2)c(-c2ccccn2)nn1-c1nc2ccccc2[nH]1 [Compound I-109, 1-(1H-1,3-benzodiazol-2-yl)-4-[2-(4-fluorophenyl)ethyl]-3-(pyridin-2-yl)-1H-pyrazol-5-ol]
Kd (HIV-1 NefNL4-3): 36.2 nM

Oc1c(CCc2ccc(F)cc2)c(C2CCN(c3ncccn3)CC2)nn1-c1nc2ccccc2[nH]1 [Compound I-903, 1-(1H-1,3-benzodiazol-2-yl)-4-[2-(4-fluorophenyl)ethyl]-3-[1-(pyrimidin-2-yl)piperidin-4-yl]-1H-pyrazol-5-ol]
Kd (HIV-1 NefNL4-3; [4]): 9980 nM

C=CCc1c(-c2ccc(C(F)(F)F)cc2)nn(-c2nc3ccccc3[nH]2)c1O [Compound I-115, 1-(1H-1,3-benzodiazol-2-yl)-4-(prop-2-en-1-yl)-3-[4-(trifluoromethyl)phenyl]-1H-pyrazol-5-ol]
Kd (HIV-1 NefNL4-3): 687 nM
Kd (HIV-1 NefNL4-3; [5]): 5700 nM

CC(C)(C)OC(=O)N1CCC(c2nn(-c3nc4ccccc4[nH]3)c(O)c2Cc2ccc(F)c(F)c2)CC1 [Compound I-203, tert-butyl 4-[1-(1H-1,3-benzodiazol-2-yl)-4-[(3,4-difluorophenyl)methyl]-5-hydroxy-1H-pyrazol-3-yl]piperidine-1-carboxylate]
Kd (HIV-1 NefNL4-3): 821 nM
Kd (HIV-1 NefNL4-3; [5]): 45400 nM

Oc1c(CCc2ccc(F)cc2)c(C2CCNCC2)nn1-c1nc2ccccc2[nH]1 [Compound I-551, 1-(1H-1,3-benzodiazol-2-yl)-4-[2-(4-fluorophenyl)ethyl]-3-(piperidin-4-yl)-1H-pyrazol-5-ol]
Nef NL4-3 Binding, SPR 1:1 or 2-site fitting KD1 (HIV-1 NefNL4-3; Table 1): No Interaction

Fc1ccc(-c2c(CCc3ccccc3)cnn2-c2cc(C(F)(F)F)n[nH]2)cc1 [Compound I-1501]
% Cell Viability (TZM-bl cell line): 97.9%

CS(=O)(=O)c1ccc(-c2nn(-c3cc(C4CC4)n[nH]3)c(O)c2CCC2CCOCC2)cc1 [Compound I-607]
Percent Viability @ 1 μM (TZM-bl cells) (TZM-bl cell line): 100.0%

CC(=O)N1CCC(c2nn(-c3nc4ccccc4[nH]3)c(O)c2CCc2ccc(F)cc2)CC1 [Compound I-741, 1-{4-[1-(1H-1,3-benzodiazol-2-yl)-4-[2-(4-fluorophenyl)ethyl]-5-hydroxy-1H-pyrazol-3-yl]piperidin-1-yl}ethan-1-one]
Kd (HIV-1 NefNL4-3): 3260 nM
Kd (HIV-1 NefNL4-3; [5]): 10600 nM

O=S(=O)(c1c(Cl)nc2sccn12)N1CCC(c2nn(-c3nc4ccccc4[nH]3)c(O)c2CCc2ccc(F)cc2)CC1 [Compound I-752, 1-(1H-1,3-benzodiazol-2-yl)-3-[1-({6-chloroimidazo[2,1-b][1,3]thiazol-5-yl}sulfonyl)piperidin-4-yl]-4-[2-(4-fluorophenyl)ethyl]-1H-pyrazol-5-ol]
inhibition at 1 µM (HIV-1NL4-3): 14.7%
Percent Viability @ 1 μM (TZM-bl cells) (TZM-bl cell line; human, 1 μM): 97.7%

Oc1c(CCc2ccncc2)c(-c2ccc(F)cc2)nn1-c1cc(C(F)(F)F)n[nH]1 [Compound I-620]
Percent Viability @ 1 μM (TZM-bl cells) (TZM-bl cell line): 100.0%

Oc1c(CCc2ccc(F)cc2)c(-c2cnccn2)nn1-c1nc2ccccc2[nH]1 [Compound I-103, 1-(1H-1,3-benzodiazol-2-yl)-4-[2-(4-fluorophenyl)ethyl]-3-(pyrazin-2-yl)-1H-pyrazol-5-ol]
Kd (HIV-1 NefNL4-3; [1]): 25400 nM

Fc1ccc(-c2nn(-c3cc(C(F)(F)F)n[nH]3)cc2CCc2ccccc2)cc1 [Compound I-1501]
Percent Viability @ 1 μM (TZM-bl cells) (TZM-bl cell line; [2]): 102.5%

Oc1c(CCc2ccc(F)cc2)c(-c2cccc(Cl)c2)nn1-c1nc2ccccc2[nH]1 [Compound I-116, 1-(1H-1,3-benzodiazol-2-yl)-3-(3-chlorophenyl)-4-[2-(4-fluorophenyl)ethyl]-1H-pyrazol-5-ol]
Kd (HIV-1 NefNL4-3): 2010 nM

CC(C)(C)OC(=O)N1CCC(CCc2c(-c3cccc(S(C)(=O)=O)c3)nn(-c3cc(C(F)(F)F)n[nH]3)c2O)CC1 [Compound I-605]
% Cell Viability (TZM-bl cell line): 100%
Percent Viability @ 1 μM (TZM-bl cells) (TZM-bl cell line; [2]): 106.0%

O=C(OCc1ccccc1)N1CCC(c2nn(-c3nc4ccccc4[nH]3)c(O)c2Cc2ccc(F)c(F)c2)CC1 [Compound I-159, benzyl 4-[1-(1H-1,3-benzodiazol-2-yl)-4-[(3,4-difluorophenyl)methyl]-5-hydroxy-1H-pyrazol-3-yl]piperidine-1-carboxylate]
Kd (HIV-1 NefNL4-3): 384 nM
